Source: patent US20230123334A1, “AMINO LIPID COMPOUND, PREPARATION METHOD THEREFOR, AND APPLICATION THEREOF” (SHENZHEN SHENXIN BIOTECHNOLOGY CO., LTD., priority 2020, published 2023)

Tests used:
[1] = test system: HEK293 cells; assay: Preliminary screening as DNA vectors, GFP transfection of HEK293 cells; type: cell-based; details: HEK293 cells; lipid/DOPE liposome with 75 ng plasmid DNA (psin-EGFP-IRES-Puro); number of cells expressing GFP divided by total number of nuclei (Hoechst)
Summary of the method: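 First, amino lipid and DOPE were vortexed in sodium acetate buffer (pH 5.6) to form liposomes. Next, these were held with 75 ng EGFP plasmid at room temperature for 30 min. Finally, HEK293 cells were added, cultured at 37° C., Hoechst-stained, and GFP+/total nuclei scored by imaging.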

[2] = test system: HEK293 cells; assay: Preliminary screening as mRNA vectors, EGFP mRNA transfection of HEK293 cells; type: cell-based; details: HEK293 cells, 96-well plates, EGFP mRNA 50 ng per well; percentage of GFP fluorescent cells relative to total number of cells (Hoechst)
Summary of the method: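 Screening format: EGFP mRNA transfection (50 ng/well) into HEK293 in 10% FBS-supplemented DMEM. Percent green fluorescent cells, normalised to Hoechst nuclear count, gave the value; Lipofectamine2000 was the reference transfectant.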

Row | SMILES | Absolute DNA transfection efficiency in HEK293 cells [1] [%] | Absolute mRNA transfection efficiency in HEK293 cells [2] [%]
1 | CCCCCCCCCCCCCCCCCCNc1nc(NCCCCCCC)nc(NCCN2CCCC2)n1 [Compound N7N18D3] | 5.0 | 0.1
2 | CCCCCCCCCCCCN(CCCCCCCCCCCC)c1nc(NCCN(CC)CC)nc(N(CCCCCCCCCCCC)CCCCCCCCCCCC)n1 [2N12^2N12D7] | 0.0 | 0.3
3 | CCCCCCCCCCCCSc1nc(NCCCN(C)C)nc(SCCCCCCCCCC)n1 [Compound S10S12D6] | 16.2 | 82.4
4 | CCCCCCCCCCCCCNc1nc(NCCCCCCCCCCCCC)nc(NCCN2CCCCC2)n1 [Compound N13N13D4] | 1.5 | 3.3
5 | CCCCCCCCCCCCCNc1nc(NCCCCCC)nc(NCCN2CCCCC2)n1 [Compound N6N13D4] | 0.0 | 0.6
6 | CCCCCCCCCCCCCCCNc1nc(NCCCCCCCCCCCC)nc(NCCCN(C)C)n1 [Compound N12N15D6] | 0.9 | 2.3
7 | CCCCCCCCCCCCNc1nc(NCCCCCCCCC)nc(NCCCN2CCOCC2)n1 [Compound N9N12D8] | 0.0 | 0.0
8 | CCCCCCCCCCCCCCSc1nc(NCCN(C)C)nc(SCCCCCCCC)n1 [Compound S8S14D1] | 8.3 | 0.7
9 | CCCCCCCCCCCCCCCSc1nc(NCCN2CCCCC2)nc(SCCCCCCCCCCCCCC)n1 [Compound S14S15D4] | 0.7 | 0.1
10 | CCCCCCCCCCCCCCCCCCNc1nc(NCCCCCCCCCCCCCCC)nc(NCCCN2CCN(C)CC2)n1 [Compound N15N18D9] | 0.7 | 0.0
11 | CCCCCCCCCCCCNc1nc(NCCCCCCC)nc(NCCN(CC)CC)n1 [Compound N7N12D7] | 0.0 | 0.0
12 | CCCCCCCCCCCCCCCCCCNc1nc(NCCN2CCCCC2)nc(N(CCCCCCCCCCCC)CCCCCCCCCCCC)n1 [N18^2N12D4] | 0.9 | 1.2
13 | CCCCCCCCCCCCCNc1nc(NCCCN2CCOCC2)nc(N(CCCCCCCCCCCC)CCCCCCCCCCCC)n1 [N13^2N12D8] | 0.0 | 2.3
14 | CCCCCCCCCCCCN(CCCCCCCCCCCC)c1nc(NCCCCCCC)nc(NCC2CCN(C)CC2)n1 [N7^2N12D10] | 1.4 | 2.0
15 | CCCCCCCCCCCCCCCNc1nc(NCCCCCCCCCCCCC)nc(NCCN2CCOCC2)n1 [Compound N13N15D2] | 0.0 | 1.4
16 | CCCCCCCCCCCCCCCCCCNc1nc(NCCCCCCCC)nc(NCCN2CCCC2)n1 [Compound N8N18D3] | 9.8 | 39.9
17 | CCCCCCCCCCCCNc1nc(NCCCCCCCCCCCC)nc(NCCN2CCN(C)CC2)n1 [Compound N12N12D5] | 0.4 | 0.8
18 | CCCCCCCCCCCNc1nc(NCCCCCCCC)nc(NCCN2CCCC2)n1 [Compound N8N11D3] | 3.6 | 4.2
19 | CCCCCCCCCCCCCCCCCCNc1nc(NCCCCCCCCCCCC)nc(NCCN2CCCCC2)n1 [Compound N12N18D4] | 0.9 | 1.9
20 | CCCCCCCCCCCCCCCCCCSc1nc(NCCN(C)C)nc(SCCCCCCCCCC)n1 [Compound S10S18D1] | 9.9 | 3.5
21 | CCCCCCCCCCCCCCCCCCSc1nc(NCCN(C)C)nc(SCCCCCCCCCCCCCCCCCC)n1 [Compound S18S18D1] | 0.0 | 0.0
22 | CCCCCCCCCCCCCCCCCCNc1nc(NCCCCCCCCCCCC)nc(NCCCN2CCN(C)CC2)n1 [Compound N12N18D9] | 0.1 | 0.7
23 | CCCCCCCCCCCCCCSc1nc(NCCN2CCN(C)CC2)nc(SCCCCCCCC)n1 [Compound S8S14D5] | 29.9 | 52.7
24 | CCCCCCCCCNc1nc(NCCCCCC)nc(NCCCN2CCOCC2)n1 [Compound N6N9D8] | 0.0 | 0.0

Row | SMILES | Absolute DNA transfection efficiency in HEK293 cells [1] [%] | Absolute mRNA transfection efficiency in HEK293 cells [2] [%]
25 | CCCCCCCCNc1nc(NCCCCCCCC)nc(NCCN2CCOCC2)n1 [Compound N8N8D2] | 0.0 | 0.0
26 | CCCCCCCCCCCCCNc1nc(NCCCCCCC)nc(NCCCN2CCOCC2)n1 [Compound N7N13D8] | 0.0 | 0.1
27 | CCCCCCCCCCCCCNc1nc(NCCCCCCCCC)nc(NCCN(CC)CC)n1 [Compound N9N13D7] | 0.0 | 0.3
28 | CCCCCCCCCCCCCCCCSc1nc(NCCN2CCOCC2)nc(SCCCCCCCCCCCCCC)n1 [Compound S14S16D2] | 0.0 | 0.0
29 | CCCCCCCCCCCNc1nc(NCCCCCCCC)nc(NCCCN(C)C)n1 [Compound N8N11D6] | 0.3 | 0.1
30 | CCCCCCCCCCCCCCCNc1nc(NCCCCCCC)nc(NCCN2CCN(C)CC2)n1 [Compound N7N15D5] | 0.0 | 0.0
31 | CCCCCCCCCCCCCCCCCCNc1nc(NCCCCCCCCCCCCCCCCCC)nc(NCCN(CC)CC)n1 [Compound N18N18D7] | 0.3 | 0.0
32 | CCCCCCCCCCCSc1nc(NCCN2CCOCC2)nc(SCCCCCCCCC)n1 [Compound S9S11D2] | 17.3 | 3.3
33 | CCCCCCCCNc1nc(NCCCCCCCC)nc(NCCN(C)C)n1 [Compound N8N8D1] | 2.3 | 0.0
34 | CCCCCCCCCCCCCCCCCCNc1nc(NCCCCCCC)nc(NCCN(C)C)n1 [Compound N7N18D1] | 1.0 | 2.3
35 | CCCCCCCCCCCCNc1nc(NCCCCCCC)nc(NCCN2CCN(C)CC2)n1 [Compound N7N12D5] | 0.3 | 0.0
36 | CCCCCCCCCCCCCNc1nc(NCCCCCCC)nc(NCCN(CC)CC)n1 [Compound N7N13D7] | 0.1 | 0.0
37 | CCCCCCCCCNc1nc(NCCCCCCC)nc(NCCN2CCOCC2)n1 [Compound N7N9D2] | 0.0 | 0.0
38 | CCCCCCCCCCCCCCCCCCNc1nc(NCCCCCCCCCCC)nc(NCCN(C)C)n1 [Compound N11N18D1] | 3.4 | 7.2
39 | CCCCCCCCCCCCCCCCCCSc1nc(NCCN2CCOCC2)nc(SCCCCCCCCCCCCCCC)n1 [Compound S15S18D2] | 0.1 | 0.5
40 | CCCCCCCCCCCCCCCCCCNc1nc(NCCCCCC)nc(NCCCN2CCOCC2)n1 [Compound N6N18D8] | 0.3 | 0.0
41 | CCCCCCCCCCCCCCCCCCNc1nc(NCCCCCC)nc(NCCCN(C)C)n1 [Compound N6N18D6] | 1.8 | 0.1
42 | CCCCCCCCCCCCNc1nc(NCCCN2CCOCC2)nc(N(CCCCCCCCCCCC)CCCCCCCCCCCC)n1 [N12^2N12D8] | 0.6 | 3.2
43 | CCCCCCCCCCCCCCCNc1nc(NCCCCCCC)nc(NCCN2CCCCC2)n1 [Compound N7N15D4] | 0.2 | 0.0
44 | CCCCCCCCNc1nc(NCCCCCC)nc(NCC2CCN(C)CC2)n1 [Compound N6N8D10] | 0.0 | 0.0
45 | CCCCCCCCCCCCCCCCSc1nc(NCCCN(C)C)nc(SCCCCCCCCCCC)n1 [Compound S11S16D6] | 2.7 | 9.3
46 | CCCCCCCCCCCCCCSc1nc(NCCN2CCCC2)nc(SCCCCCCCCCC)n1 [Compound S10S14D3] | 7.9 | 0.6
47 | CCCCCCCCCCCNc1nc(NCCCCCCCCCCC)nc(NCC2CCN(C)CC2)n1 [Compound N11N11D10] | 0.5 | 1.2
48 | CCCCCCCCCCCCCCCNc1nc(NCCCCCCCCCCCC)nc(NCCN2CCCCC2)n1 [Compound N12N15D4] | 1.4 | 1.3
